Tests used:
Settings in all cases: exposure time: 90 min
1309 [1] = donor line of iPSC-derived cardiomyocytes; assay: POD (EC10) for decrease in total cell number (cytotoxicity) vs vehicle; higher = less potent (higher point of departure)
Outline: (§1)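 Donor-specific cytotoxicity points of departure were derived from hierarchical Bayesian Hill fits to vehicle-normalised nuclear counts. The benchmark for these fits was a 10% decrease. The cells were human iPSC-derived cardiomyocytes from 16 donors, cultured 14 days in 384-well plates and exposed for 90 min at 37 °C to 0.1, 1, 10 and 100 µM (final, 0.5% DMSO). Following a Ca2+ flux read, they were stained for 15 min with Hoechst 33342 (2.2 µg/mL) and MitoTracker Orange, imaged at 10× on an ImageXpress Micro Confocal, and their nuclei counted per field in MetaXpress.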

20032 = donor line of iPSC-derived cardiomyocytes; assay: as above
Outline: as §1

1434 = donor line of iPSC-derived cardiomyocytes; assay: as above
Outline: as §1

1565 = donor line of iPSC-derived cardiomyocytes; assay: as above
Outline: as §1

1516 [2] = donor line of iPSC-derived cardiomyocytes; assay: as above
Outline: as §1

30145 [3] = donor line of iPSC-derived cardiomyocytes; assay: as above
Outline: as §1

1392 [4] = donor line of iPSC-derived cardiomyocytes; assay: as above
Outline: as §1

1083 = donor line of iPSC-derived cardiomyocytes; assay: as above
Outline: as §1

1518 [5] = donor line of iPSC-derived cardiomyocytes; assay: as above
Outline: as §1

30171 = donor line of iPSC-derived cardiomyocytes; assay: as above
Outline: as §1

1118 = donor line of iPSC-derived cardiomyocytes; assay: as above
Outline: as §1

1531 = donor line of iPSC-derived cardiomyocytes; assay: as above
Outline: as §1

1309 [6] = assay: POD (EC95) for loss of peak frequency (asystole) vs vehicle; higher = less potent (higher point of departure)
Description: (§2)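 Human iPSC-derived cardiomyocytes from 16 donors were exposed for 90 min at 37 °C to each PFAS at 0.1, 1, 10 and 100 µM in 0.5% DMSO, 384-well plates. Kinetic Ca2+ flux (FLIPR) and Hoechst nuclei counts were normalised to vehicle wells and fitted with a hierarchical Bayesian Hill model to give donor-specific PODs: EC05 for beat-rate increase or decrease and for decay-to-rise ratio increase (QT proxy), EC95 for peak-frequency loss (asystole), EC10 for total cell number loss. 0.03 µM is the lower bound.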

1368 = donor line of iPSC-derived cardiomyocytes; assay: as above
Description: as §2

1516 [7] = assay: as above
Description: as §2

30145 [8] = assay: as above
Description: as §2

1392 [9] = assay: as above
Description: as §2

20084 = donor line of iPSC-derived cardiomyocytes; assay: as above
Description: as §2

1518 [10] = assay: as above
Description: as §2

1535 = donor line of iPSC-derived cardiomyocytes; assay: as above
Description: as §2

Row | SMILES | POD vs vehicle 1309 [1] | POD vs vehicle 20032 | POD vs vehicle 1434 | POD vs vehicle 1565 | POD vs vehicle 1516 [2] | POD vs vehicle 30145 [3] | POD vs vehicle 1392 [4] | POD vs vehicle 1083 | POD vs vehicle 1518 [5] | POD vs vehicle 30171 | POD vs vehicle 1118 | POD vs vehicle 1531 | POD vs vehicle 1309 [6] | POD vs vehicle 1368 | POD vs vehicle 1516 [7] | POD vs vehicle 30145 [8] | POD vs vehicle 1392 [9] | POD vs vehicle 20084 | POD vs vehicle 1518 [10] | POD vs vehicle 1535
1 | O=C(O)C(F)(F)C(F)(F)C(F)(F)OC(F)(C(F)(F)F)C(F)(F)F [Perfluoro-4-isopropoxybutanoic_acid] | > 100 µM | > 100 µM | > 100 µM | > 100 µM | > 100 µM | > 100 µM | > 100 µM | > 100 µM | > 100 µM | > 100 µM | > 100 µM | > 100 µM | > 100 µM | > 100 µM | > 100 µM | > 100 µM | > 100 µM | > 100 µM | > 100 µM | > 100 µM
2 | O=S(=O)(O)C(F)(F)C(F)(F)C(F)(F)C(F)(F)F [Perfluorobutanesulfonic_acid] | > 100 µM | > 100 µM | > 100 µM | > 100 µM | > 100 µM | > 100 µM | > 100 µM | > 100 µM | > 100 µM | > 100 µM | > 100 µM | > 100 µM | > 100 µM | > 100 µM | > 100 µM | > 100 µM | > 100 µM | > 100 µM | > 100 µM | > 100 µM
3 | O=C(O)C(F)(F)C(F)(F)C(F)(F)F [Perfluorobutanoic_acid] | > 100 µM | > 100 µM | > 100 µM | > 100 µM | > 100 µM | > 100 µM | > 100 µM | > 100 µM | > 100 µM | > 100 µM | > 100 µM | > 100 µM | > 100 µM | > 100 µM | > 100 µM | > 100 µM | > 100 µM | > 100 µM | > 100 µM | > 100 µM
4 | O=C(O)C(F)(F)C(F)(F)C(F)(F)C(F)(F)C(F)(F)C(F)(F)C(F)(F)C(F)(F)C(F)(F)F [Perfluorodecanoic_acid] | > 100 µM | 5.59 µM | 75.8 µM | 81.5 µM | > 100 µM | > 100 µM | > 100 µM | > 100 µM | 67.6 µM | > 100 µM | > 100 µM | > 100 µM | > 100 µM | > 100 µM | 68.8 µM | > 100 µM | > 100 µM | > 100 µM | > 100 µM | > 100 µM
5 | NS(=O)(=O)C(F)(F)C(F)(F)C(F)(F)C(F)(F)C(F)(F)C(F)(F)F [Perfluorohexanesulfonamide] | 70.7 µM | > 100 µM | 20.6 µM | > 100 µM | 61.1 µM | > 100 µM | > 100 µM | > 100 µM | > 100 µM | > 100 µM | 14.9 µM | > 100 µM | 90.8 µM | > 100 µM | 77.8 µM | > 100 µM | > 100 µM | > 100 µM | > 100 µM | 71.2 µM
6 | O=S(=O)(O)C(F)(F)C(F)(F)C(F)(F)C(F)(F)C(F)(F)C(F)(F)F [Perfluorohexanesulfonic_acid] | > 100 µM | > 100 µM | > 100 µM | > 100 µM | > 100 µM | > 100 µM | > 100 µM | > 100 µM | > 100 µM | > 100 µM | > 100 µM | > 100 µM | > 100 µM | > 100 µM | > 100 µM | > 100 µM | > 100 µM | > 100 µM | > 100 µM | > 100 µM
7 | O=C(O)C(F)(F)C(F)(F)C(F)(F)C(F)(F)C(F)(F)F [Perfluorohexanoic_acid] | > 100 µM | > 100 µM | > 100 µM | > 100 µM | > 100 µM | > 100 µM | > 100 µM | > 100 µM | > 100 µM | > 100 µM | > 100 µM | > 100 µM | > 100 µM | > 100 µM | > 100 µM | > 100 µM | > 100 µM | > 100 µM | > 100 µM | > 100 µM
8 | O=C(O)C(F)(F)C(F)(F)C(F)(F)C(F)(F)C(F)(F)C(F)(F)C(F)(F)C(F)(F)F [Perfluorononanoic_acid] | > 100 µM | > 100 µM | > 100 µM | > 100 µM | > 100 µM | > 100 µM | > 100 µM | > 100 µM | > 100 µM | > 100 µM | > 100 µM | > 100 µM | > 100 µM | > 100 µM | > 100 µM | > 100 µM | > 100 µM | > 100 µM | > 100 µM | > 100 µM
9 | NC(=O)C(F)(F)C(F)(F)C(F)(F)C(F)(F)C(F)(F)C(F)(F)C(F)(F)F [Perfluorooctanamide] | > 100 µM | > 100 µM | > 100 µM | > 100 µM | > 100 µM | > 100 µM | > 100 µM | > 100 µM | > 100 µM | > 100 µM | > 100 µM | > 100 µM | > 100 µM | > 100 µM | > 100 µM | > 100 µM | > 100 µM | > 100 µM | > 100 µM | > 100 µM
10 | N=C(N)C(F)(F)C(F)(F)C(F)(F)C(F)(F)C(F)(F)C(F)(F)C(F)(F)F [Perfluorooctanamidine] | > 100 µM | > 100 µM | > 100 µM | > 100 µM | > 100 µM | > 100 µM | > 100 µM | > 100 µM | > 100 µM | > 100 µM | > 100 µM | > 100 µM | > 100 µM | > 100 µM | > 100 µM | > 100 µM | > 100 µM | > 100 µM | > 100 µM | > 100 µM
11 | O=S(=O)(O)C(F)(F)C(F)(F)C(F)(F)C(F)(F)C(F)(F)C(F)(F)C(F)(F)C(F)(F)F [Perfluorooctanesulfonic_acid] | 88.7 µM | > 100 µM | > 100 µM | > 100 µM | > 100 µM | > 100 µM | > 100 µM | > 100 µM | > 100 µM | > 100 µM | > 100 µM | > 100 µM | > 100 µM | > 100 µM | > 100 µM | > 100 µM | > 100 µM | > 100 µM | > 100 µM | > 100 µM
12 | O=C(O)C(F)(F)C(F)(F)C(F)(F)C(F)(F)C(F)(F)C(F)(F)C(F)(F)F [Perfluorooctanoic_acid] | > 100 µM | > 100 µM | > 100 µM | > 100 µM | > 100 µM | > 100 µM | > 100 µM | > 100 µM | > 100 µM | > 100 µM | > 100 µM | > 100 µM | > 100 µM | > 100 µM | > 100 µM | > 100 µM | > 100 µM | > 100 µM | > 100 µM | > 100 µM
13 | O=C(O)C(F)(F)C(F)(F)C(F)(F)C(F)(F)F [Perfluoropentanoic_acid] | > 100 µM | > 100 µM | > 100 µM | > 100 µM | > 100 µM | > 100 µM | > 100 µM | > 100 µM | > 100 µM | > 100 µM | > 100 µM | > 100 µM | > 100 µM | > 100 µM | > 100 µM | > 100 µM | > 100 µM | > 100 µM | > 100 µM | > 100 µM
14 | O=C(O)C(F)(F)C(F)(F)F [Perfluoropropanoic_acid] | > 100 µM | > 100 µM | > 100 µM | > 100 µM | > 100 µM | > 100 µM | > 100 µM | > 100 µM | > 100 µM | > 100 µM | > 100 µM | > 100 µM | > 100 µM | > 100 µM | > 100 µM | > 100 µM | > 100 µM | > 100 µM | > 100 µM | > 100 µM
15 | O=C(O)C(F)(F)C(F)(F)C(F)(F)C(F)(F)C(F)(F)C(F)(F)C(F)(F)C(F)(F)C(F)(F)C(F)(F)F [Perfluoroundecanoic_acid] | > 100 µM | > 100 µM | > 100 µM | > 100 µM | > 100 µM | > 100 µM | > 100 µM | > 100 µM | > 100 µM | > 100 µM | > 100 µM | > 100 µM | > 100 µM | > 100 µM | > 100 µM | > 100 µM | > 100 µM | > 100 µM | > 100 µM | > 100 µM
16 | O=S(=O)([O-])C(F)(F)C(F)(F)C(F)(F)C(F)(F)F.[K+] [Potassium_perfluorobutanesulfonate] | > 100 µM | > 100 µM | 53.9 µM | > 100 µM | > 100 µM | > 100 µM | > 100 µM | > 100 µM | > 100 µM | > 100 µM | > 100 µM | > 100 µM | > 100 µM | > 100 µM | > 100 µM | > 100 µM | > 100 µM | > 100 µM | > 100 µM | > 100 µM
